# Molecular target: T1, α5β3γ2 GABAA receptors (Ltk cells) (Homo sapiens, UniProt P18507+P31644)
# T1 construct: membranes
# Test: Binding activity on GABAAR: inhibition of [3H]Ro15-1788 binding
# Details: not given
# Method: Tissue culture and Membrane Preparation: The binding was performed on Ltk cells stably expressing GABAA receptors: α1β1γ2, α2β3γ2, α3β3γ2 and α5β3γ2 (provided by Merck Co., NJ, USA). Cells were seeded in 100 mm culture plates in DMEM/F12 medium containing 10% serum and antibiotics in 5% CO2 and allowed to grow for 1-2 days. GABAAR expression was then induced by dexamethasone as follows: 0.5 μM for 1 day for α5 containing and 2 μM for 3 days for α1, α2 and α3 containing GABAARs. After induction, cells were collected by scraping into Dulbecco's Phosphate buffered saline (DPBS, pH 7.4, Invitrogen, Carlsbad, Calif., USA) and centrifuged at 150×g for 10 min. The pellet was washed twice by re-suspension and centrifugation. The cell pellets from at least 5 different preps were combined, suspended in the binding assay buffer (50 mM KH2PO4; 1 mM EDTA; 0.2 M KCl, pH 7.4) and membranes prepared by sonication (3-5 times, 30 sec) using Branson Sonifier 150 (G. Heinmann, Germany). Protein content was determined using BCA assay (Bio-Rad Labs, Reinach, Switzerland) with Bovine Serum Albumin (Sigma Aldrich, St. Louis, Mo., USA) as the standard. Aliquots were prepared and stored at −20° C. for further use in binding assays.
# Ligand Binding: Saturation binding curves were obtained by incubating membranes with increasing concentrations (0.01-8 nM) of [^3H]Ro15-1788 (Flumazepil, 75-85 Ci/mmol, PerkinElmer, MA, USA), with nonspecific binding measured in the presence of 10 μM diazepam.
# All binding assays were performed for 1 h at 4° C. in assay buffer. The total assay volume was 0.5 ml containing 0.2 mg/ml protein for α5 and 0.4 mg/ml for α1, α2, and α3 containing GABAAR membranes. Incubations were terminated by filtration through GF/B filters using a 24-Cell Harvestor (Brandel, Gaithersburg, Md., USA) followed by 3 washes with ice-cold assay buffer. Filters were transferred to scintillation vials, 5 ml scintillation liquid added, vortex-mixed and kept in dark. Next day, radioactivity was obtained using a scintillation counter (Beckman Coulter, Brea, Calif., USA). All assays were performed in triplicate.
# Data Analyses: Saturation and inhibition curves were obtained using GraphPad Prism software (GraphPad Software, Inc., CA, USA).
# T1 sequence (P31644 32-462): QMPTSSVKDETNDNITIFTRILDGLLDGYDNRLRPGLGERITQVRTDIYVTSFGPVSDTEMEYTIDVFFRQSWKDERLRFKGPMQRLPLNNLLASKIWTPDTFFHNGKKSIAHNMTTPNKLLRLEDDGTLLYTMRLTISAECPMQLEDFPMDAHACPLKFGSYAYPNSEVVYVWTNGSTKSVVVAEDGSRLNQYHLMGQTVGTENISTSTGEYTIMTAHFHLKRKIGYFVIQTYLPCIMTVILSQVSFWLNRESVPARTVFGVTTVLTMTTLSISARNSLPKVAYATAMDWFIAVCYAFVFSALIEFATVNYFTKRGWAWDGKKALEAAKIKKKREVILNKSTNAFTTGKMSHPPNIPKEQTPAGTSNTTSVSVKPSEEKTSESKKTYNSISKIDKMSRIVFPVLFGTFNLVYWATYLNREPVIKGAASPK
# T1 sequence (P28472 26-473 partner): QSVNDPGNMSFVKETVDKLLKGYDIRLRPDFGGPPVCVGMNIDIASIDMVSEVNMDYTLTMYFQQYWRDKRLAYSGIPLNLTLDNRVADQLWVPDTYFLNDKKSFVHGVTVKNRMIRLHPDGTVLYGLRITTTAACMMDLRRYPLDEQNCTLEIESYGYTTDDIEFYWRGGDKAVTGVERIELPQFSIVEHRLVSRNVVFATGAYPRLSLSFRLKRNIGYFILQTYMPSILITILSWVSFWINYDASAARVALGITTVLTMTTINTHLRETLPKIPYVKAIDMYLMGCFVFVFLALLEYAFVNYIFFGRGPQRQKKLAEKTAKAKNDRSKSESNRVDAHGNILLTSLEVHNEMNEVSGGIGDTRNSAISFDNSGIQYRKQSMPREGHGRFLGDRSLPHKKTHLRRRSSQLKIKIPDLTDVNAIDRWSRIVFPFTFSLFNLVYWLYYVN
# T1 sequence (P18507 40-475): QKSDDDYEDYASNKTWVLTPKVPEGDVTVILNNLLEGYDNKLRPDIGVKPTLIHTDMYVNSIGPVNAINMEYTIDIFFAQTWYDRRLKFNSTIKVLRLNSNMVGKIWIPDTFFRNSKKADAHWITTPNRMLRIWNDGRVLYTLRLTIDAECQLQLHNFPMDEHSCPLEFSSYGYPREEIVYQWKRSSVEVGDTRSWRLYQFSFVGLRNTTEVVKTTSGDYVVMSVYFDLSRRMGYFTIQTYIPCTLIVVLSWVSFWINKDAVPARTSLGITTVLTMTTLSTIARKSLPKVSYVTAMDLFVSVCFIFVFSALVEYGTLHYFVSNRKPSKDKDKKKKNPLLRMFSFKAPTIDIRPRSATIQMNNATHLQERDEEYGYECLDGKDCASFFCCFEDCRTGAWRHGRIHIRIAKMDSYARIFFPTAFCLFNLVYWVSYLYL
row,SMILES,Ki [µM]
1,COc1ccc2c(c1)-c1nnc(COc3cccc(F)c3)n1Cc1c(C#N)ncn1-2 [Compound 196],< 0.099
2,COc1ccc2c(c1)-n1nnc(Cc3cccnc3)c1Cc1c(C#N)ncn1-2 [Compound 210],< 0.099
3,COc1ccc2c(c1)-n1nnc(COc3ccccc3F)c1Cc1c(-c3noc(C)n3)ncn1-2 [Compound 181],< 0.099
4,CCc1nc(-c2ncn3c2Cc2c(Cc4ccc(F)cc4)nnn2-c2cc(OC)ccc2-3)no1 [Compound 195],< 0.099
5,COCc1nnc2n1Cc1c(C#Cc3ccccc3C)ncn1-c1ccc(Cl)cc1-2 [Compound 293],< 0.099
6,COc1ccc2c(c1)-n1nnc(COc3cccc(Br)c3)c1Cc1c(C#N)ncn1-2 [Compound 225],< 0.099
7,C#Cc1ncn2c1Cn1c(COc3ccccc3)nnc1-c1cc(Cl)ccc1-2 [Compound 205],< 0.099
8,Clc1ccc2c(c1)-c1nnc(COc3ccccc3)n1Cc1c(Br)ncn1-2 [Compound 202],< 0.099
9,COCc1nnc2n1Cc1c(C3=N[C@@H](c4ccccc4)CO3)ncn1-c1ccc(Cl)cc1-2 [Compound 264],< 0.099
10,CC(C)c1nc(-c2ncn3c2Cn2c(COc4cccnc4)nnc2-c2cc(F)ccc2-3)no1 [Compound 185],< 0.099
11,COCc1nnc2n1Cc1c(C3=NC(C)CO3)ncn1-c1ccc(Cl)cc1-2 (centres unmarked) [Compound 243],< 0.099
12,CCOCc1nnc2n1Cc1c(C3=N[C@H](c4ccccc4)CO3)ncn1-c1ccc(Cl)cc1-2 [Compound 271],< 0.099
13,CC(C)c1nc(-c2ncn3c2Cn2c(COc4cccc(F)c4)nnc2-c2cc(F)ccc2-3)no1 [Compound 188],< 0.099
14,COc1ccc2c(c1)-n1nnc(COc3ccc(F)cc3)c1Cc1c(-c3noc(C)n3)ncn1-2 [Compound 180],< 0.099
15,FC(F)=Cc1ncn2c1Cn1c(COc3ccccc3)nnc1-c1cc(Cl)ccc1-2 [Compound 199],< 0.099
16,COc1ccc2c(c1)-c1nnc(COCc3cccnc3)n1Cc1c(-c3noc(C(C)C)n3)ncn1-2 [Compound 203],< 0.099
17,N#Cc1ncn2c1Cc1c(COc3ccccc3)nnn1-c1cc(Cl)ccc1-2 [Compound 226],< 0.099
18,CCOCc1nnc2n1Cc1c(-c3nc(C)no3)ncn1-c1ccc(Cl)cc1-2 [Compound 255],< 0.099
19,COCc1nnc2n1Cc1c(-c3ncco3)ncn1-c1ccc(Cl)cc1-2 [Compound 249],< 0.099
20,CC(C)c1nc(-c2ncn3c2Cn2c(COc4ccc(F)cc4)nnc2-c2cc(F)ccc2-3)no1 [Compound 189],< 0.099
21,COc1ccc2c(c1)-n1nnc(COc3ccccc3)c1Cc1c(-c3noc(C)n3)ncn1-2 [Compound 182],< 0.099
22,CCc1nc(-c2ncn3c2Cc2c(Cc4ccccc4)nnn2-c2cc(OC)ccc2-3)no1 [Compound 194],< 0.099
23,CCOCc1nnc2n1Cc1c(-c3nc(C(C)C)no3)ncn1-c1ccc(Cl)cc1-2 [Compound 254],< 0.099
24,COc1ccc2c(c1)-n1nnc(COc3ccccc3)c1Cc1c(C#N)ncn1-2 [Compound 224],< 0.099
25,COc1ccc2c(c1)-n1nnc(COc3ccc(F)cc3)c1Cc1c(C#N)ncn1-2 [Compound 222],< 0.099
26,COc1ccc2c(c1)-n1nncc1Cc1c(-c3nc(C(C)C)no3)ncn1-2 [Compound 257],< 0.099

# Molecular target: T2, GABAA receptors (α5β2γ2) (Homo sapiens, UniProt P18507+P31644)
# T2 construct: expressed in transfected cells
# Test: Positive allosteric modulator activity: potentiation of EC20 GABA current in oocytes
# Type: cell-based
# Details: read-out: GABA α5 functional potentiation
# Method: On day 1, 1 ng/32 nL of GABAA α5β2γ2 cDNA was injected into one oocyte. Test starts on day 2. The cDNA injected to the oocytes was a mix of alpha, beta and gamma, their ratio is 1:1:10 (by weight) and the total weight of the mixed 3 subunits to be injected in one oocyte was 1 ng in 32 nl volume. The injected oocytes can also be tested on day 3. In such case, the cDNA amount injected to the oocytes should be reduced by 20%.
# 1). 8 oocytes were placed in 8 chambers of OpusXpress and superfused with Modified Barth's Saline (MBS) at 3 mL/min. Glass electrodes back-filled with 3M KCl (0.5-3 megaohms) were used.
# 1). Repeat the above steps 1), 2) and 3) in the control test.
# 2). […] Divide Itest by IGABA to obtain potentiation (%).
# 3). Discard all tested oocytes, new oocytes were used and the above steps 1) and 2) were repeated to test second concentration of the same compound. Each oocyte was used for only one concentration test for a single test compound. The steps were repeated for other test compounds.
# T2 sequence (P31644 32-462): as the sequence (P31644 32-462) above
# T2 sequence (P47870 25-512 partner limits assumed): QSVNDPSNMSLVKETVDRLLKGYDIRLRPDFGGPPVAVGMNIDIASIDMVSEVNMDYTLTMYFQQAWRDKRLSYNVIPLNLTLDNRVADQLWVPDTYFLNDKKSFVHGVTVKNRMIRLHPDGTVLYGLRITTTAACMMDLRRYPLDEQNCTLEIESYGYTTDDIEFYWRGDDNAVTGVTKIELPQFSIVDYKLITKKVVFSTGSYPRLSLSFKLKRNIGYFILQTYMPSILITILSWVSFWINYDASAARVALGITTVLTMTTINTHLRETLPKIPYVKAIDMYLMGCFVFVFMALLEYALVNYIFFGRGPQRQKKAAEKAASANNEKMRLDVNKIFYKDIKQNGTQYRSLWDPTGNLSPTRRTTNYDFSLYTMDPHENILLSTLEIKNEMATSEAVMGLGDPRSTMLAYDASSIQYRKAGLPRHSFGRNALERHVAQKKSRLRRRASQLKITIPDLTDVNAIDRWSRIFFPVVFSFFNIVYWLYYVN
# T2 sequence (P18507 40-475): as the sequence (P18507 40-475) above
row,SMILES,activation at 0.1 µM [%]
1,COc1ccc2c(c1)-c1nnc(COc3cccc(F)c3)n1Cc1c(C#N)ncn1-2 [Compound 196],20 to 49
2,COc1ccc2c(c1)-n1nnc(Cc3cccnc3)c1Cc1c(C#N)ncn1-2 [Compound 210],20 to 49
3,COc1ccc2c(c1)-n1nnc(COc3ccccc3F)c1Cc1c(-c3noc(C)n3)ncn1-2 [Compound 181],20 to 49
4,CCc1nc(-c2ncn3c2Cc2c(Cc4ccc(F)cc4)nnn2-c2cc(OC)ccc2-3)no1 [Compound 195],20 to 49
5,COCc1nnc2n1Cc1c(C#Cc3ccccc3C)ncn1-c1ccc(Cl)cc1-2 [Compound 293],20 to 49
6,COc1ccc2c(c1)-n1nnc(COc3cccc(Br)c3)c1Cc1c(C#N)ncn1-2 [Compound 225],20 to 49
7,C#Cc1ncn2c1Cn1c(COc3ccccc3)nnc1-c1cc(Cl)ccc1-2 [Compound 205],20 to 49
8,Clc1ccc2c(c1)-c1nnc(COc3ccccc3)n1Cc1c(Br)ncn1-2 [Compound 202],20 to 49
9,COCc1nnc2n1Cc1c(C3=N[C@@H](c4ccccc4)CO3)ncn1-c1ccc(Cl)cc1-2 [Compound 264],20 to 49
10,CC(C)c1nc(-c2ncn3c2Cn2c(COc4cccnc4)nnc2-c2cc(F)ccc2-3)no1 [Compound 185],> 50
11,COCc1nnc2n1Cc1c(C3=NC(C)CO3)ncn1-c1ccc(Cl)cc1-2 (centres unmarked) [Compound 243],20 to 49
12,CCOCc1nnc2n1Cc1c(C3=N[C@H](c4ccccc4)CO3)ncn1-c1ccc(Cl)cc1-2 [Compound 271],> 50
13,CC(C)c1nc(-c2ncn3c2Cn2c(COc4cccc(F)c4)nnc2-c2cc(F)ccc2-3)no1 [Compound 188],20 to 49
14,COc1ccc2c(c1)-n1nnc(COc3ccc(F)cc3)c1Cc1c(-c3noc(C)n3)ncn1-2 [Compound 180],20 to 49
15,FC(F)=Cc1ncn2c1Cn1c(COc3ccccc3)nnc1-c1cc(Cl)ccc1-2 [Compound 199],20 to 49
16,COc1ccc2c(c1)-c1nnc(COCc3cccnc3)n1Cc1c(-c3noc(C(C)C)n3)ncn1-2 [Compound 203],20 to 49
17,N#Cc1ncn2c1Cc1c(COc3ccccc3)nnn1-c1cc(Cl)ccc1-2 [Compound 226],20 to 49
18,CCc1nc(-c2ncn3c2Cn2c(COc4ccccc4)nnc2-c2cc(F)ccc2-3)no1 [Compound 158],20 to 49
19,Cc1nc(-c2ncn3c2Cn2c(COc4ccccc4)nnc2-c2cc(F)ccc2-3)no1 [Compound 148],20 to 49
20,Cc1nnn2c1Cc1c(C(=O)OCC(C)(C)C)ncn1-c1ccc(F)cc1-2 [Compound 113],> 50
21,CCOCc1nnc2n1Cc1c(-c3nc(C)no3)ncn1-c1ccc(Cl)cc1-2 [Compound 255],20 to 49
22,COCc1nnc2n1Cc1c(-c3ncco3)ncn1-c1ccc(Cl)cc1-2 [Compound 249],20 to 49
23,CC(C)c1nc(-c2ncn3c2Cn2c(COc4ccc(F)cc4)nnc2-c2cc(F)ccc2-3)no1 [Compound 189],20 to 49
24,CCOC(=O)c1ncn2c1Cc1c(C)nnn1-c1cc(F)ccc1-2 [Compound 2],20 to 49
25,COc1ccc2c(c1)-c1nnc(COc3ccccc3Cl)n1Cc1c(-c3noc(C(C)C)n3)ncn1-2 [Compound 175],20 to 49
26,CCOC(=O)c1ncn2c1Cn1c(COc3ccccc3)nnc1-c1cc(F)ccc1-2 [Compound 137],20 to 49

row,SMILES,activation at 0.1 µM [%]
1,COc1ccc2c(c1)-c1nnc(COc3ccccc3F)n1Cc1c(-c3noc(C(C)C)n3)ncn1-2 [Compound 174],> 50
2,COc1ccc2c(c1)-n1nnc(COc3ccccc3)c1Cc1c(-c3noc(C)n3)ncn1-2 [Compound 182],20 to 49
3,CCc1nc(-c2ncn3c2Cc2c(Cc4ccccc4)nnn2-c2cc(OC)ccc2-3)no1 [Compound 194],> 50
4,Cc1noc(-c2ncn3c2Cc2c(C)nnn2-c2ccccc2-3)n1 [Compound 126],20 to 49
5,COc1ccc2c(c1)-c1nnc(COc3cccnc3)n1Cc1c(-c3noc(C(C)C)n3)ncn1-2 [Compound 176],> 50
6,CCOCc1nnc2n1Cc1c(-c3nc(C(C)C)no3)ncn1-c1ccc(Cl)cc1-2 [Compound 254],20 to 49
7,COc1ccc2c(c1)-n1nnc(COc3ccccc3)c1Cc1c(C#N)ncn1-2 [Compound 224],20 to 49
8,CCOC(=O)c1ncn2c1Cc1c(Cc3ccc(Cl)cc3)nnn1-c1cc(F)ccc1-2 [Compound 45],20 to 49
9,COc1ccc2c(c1)-c1nnc(COc3ccc(F)cc3)n1Cc1c(-c3noc(C(C)C)n3)ncn1-2 [Compound 172],> 50
10,COc1ccc2c(c1)-n1nnc(COc3ccc(F)cc3)c1Cc1c(C#N)ncn1-2 [Compound 222],20 to 49
11,COc1ccc2c(c1)-n1nnc(Cc3ccc(F)cc3)c1Cc1c(Br)ncn1-2 [Compound 213],20 to 49
12,CCc1nc(-c2ncn3c2Cc2c(C)nnn2-c2cc(F)ccc2-3)no1 [Compound 155],20 to 49
13,CC(C)c1nc(-c2ncn3c2Cn2c(COc4ccccc4)nnc2-c2cc(F)ccc2-3)no1 [Compound 147],20 to 49
14,COc1ccc2c(c1)-n1nncc1Cc1c(-c3nc(C(C)C)no3)ncn1-2 [Compound 257],20 to 49
15,Cc1nnn2c1Cc1c(-c3nc(C(C)C)no3)ncn1-c1ccccc1-2 [Compound 132],20 to 49
16,COc1ccc2c(c1)-c1nnc(COc3cccc(F)c3)n1Cc1c(-c3noc(C(C)C)n3)ncn1-2 [Compound 179],> 50
17,COCc1nnc2n1Cc1c(-c3nc(C(C)C)no3)ncn1-c1ccc(OC)cc1-2 [Compound 130],20 to 49
18,CCOC(=O)c1ncn2c1Cc1c(COc3cccc(OC)c3)nnn1-c1cc(OC)ccc1-2 [Compound 11],20 to 49
19,COc1ccc2c(c1)-c1nnc(COC3CCCC3)n1Cc1c(-c3noc(C(C)C)n3)ncn1-2 [Compound 178],> 50
20,COc1ccc2c(c1)-n1nnc(Cc3ccccc3)c1Cc1c(Br)ncn1-2 [Compound 212],20 to 49
21,Cc1nnn2c1Cc1c(C(=O)OCC(F)(F)F)ncn1-c1ccc(F)cc1-2 [Compound 114],> 50
22,CCOCc1nnc2n1Cc1c(-c3noc(C(C)C)n3)ncn1-c1ccc(OC)cc1-2 [Compound 173],> 50
23,Cc1nnn2c1Cc1c(-c3noc(C(C)(C)C)n3)ncn1-c1ccc(F)cc1-2 [Compound 160],> 50
24,Cc1nc(-c2ncn3c2Cc2c(C)nnn2-c2ccccc2-3)no1 [Compound 127],20 to 49
25,COc1ccc2c(c1)-c1nnc(COc3ccc(F)cc3)n1Cc1c(C#N)ncn1-2 [Compound 191],20 to 49
